Measured values as given in ChEMBL document CHEMBL3885881, “DrugMatrix”.

Species: Rattus norvegicus
Assay: DrugMatrix - Regimen: Daily Repeat
Assay type: toxicity, organism-based, Sprague-Dawley
Set-up: regimen Daily Repeat, gender Male, age 6-8 weeks
Conditions: in vivo, po, route oral GAVAGE, vehicle 100 % WATER; for ABSOLUTE BASOPHIL / ABSOLUTE EOSINOPHIL / ABSOLUTE LYMPHOCYTE / ABSOLUTE MONOCYTE / ABSOLUTE SEGMENTED NEUTROPHIL / BASOPHIL / EOSINOPHIL / ERYTHROCYTE COUNT / HEMATOCRIT / HEMOGLOBIN / LEUKOCYTE COUNT / LYMPHOCYTE / MEAN CORPUSCULAR HEMOGLOBIN / MEAN CORPUSCULAR HEMOGLOBIN CONCENTRATION / MEAN CORPUSCULAR VOLUME / MONOCYTE / NEUTROPHIL / NUCLEATED RED BLOOD CELLS / PLATELET COUNT: tissue Blood; for ALANINE AMINOTRANSFERASE / ALBUMIN / ALKALINE PHOSPHATASE / ASPARTATE AMINOTRANSFERASE / BLOOD UREA NITROGEN / CARBON DIOXIDE / CHLORIDE / CHOLESTEROL / CREATINE PHOSPHOKINASE / CREATININE / GLUCOSE / LACTATE DEHYDROGENASE / LIPASE / PHOSPHORUS / POTASSIUM / SODIUM / TOTAL BILIRUBIN / TOTAL PROTEIN / URIC ACID: tissue Plasma
[1] = 28 mg/kg, 120 h, dose level Low, time 5 day
[2] = 1500 mg/kg, 72 h, dose level High, time 3 day
[3] = 1500 mg/kg, 120 h, dose level High, time 5 day

With `CS(=O)(=O)c1ccc([C@@H](O)[C@@H](CO)NC(=O)C(Cl)Cl)cc1` [THIAMPHENICOL] the “ABSOLUTE BASOPHIL” value [1] was 0 CELLS/uL, the “ABSOLUTE EOSINOPHIL” value [1] was 95.33 CELLS/uL and the “ABSOLUTE LYMPHOCYTE” value [1] was 6576.67 CELLS/uL. The “ABSOLUTE MONOCYTE” value [1] was 0 CELLS/uL, the “ABSOLUTE SEGMENTED NEUTROPHIL” value [1] was 828 CELLS/uL and the BASOPHIL [1] was 0%. The EOSINOPHIL [1] was 1.33%, the “ERYTHROCYTE COUNT” value [1] was 5.62 x10E6/uL and the HEMATOCRIT [1] was 36.03%. The HEMOGLOBIN [1] was 13.5 G/DL, the “LEUKOCYTE COUNT” value [1] was 7.5 x10E3/uL and the LYMPHOCYTE [1] was 87.67%. For the same compound, the “MEAN CORPUSCULAR HEMOGLOBIN” value [1] was 24.03 pg, the “MEAN CORPUSCULAR HEMOGLOBIN CONCENTRATION” value [1] was 37.47 G/DL and the “MEAN CORPUSCULAR VOLUME” value [1] was 64.07 fL. The MONOCYTE [1] was 0%, the NEUTROPHIL [1] was 11% and the “NUCLEATED RED BLOOD CELLS” value [1] was 0 /100WBC. For the same compound, the “PLATELET COUNT” value [1] was 1264 x10E3/uL, the “ALANINE AMINOTRANSFERASE” value [1] was 51 u/L and the ALBUMIN [1] was 4.33 G/DL. For the same compound, the “ALKALINE PHOSPHATASE” value [1] was 379.67 u/L, the “ASPARTATE AMINOTRANSFERASE” value [1] was 78 u/L and the “BLOOD UREA NITROGEN” value [1] was 15 mg/dL. For the same compound, the “CARBON DIOXIDE” value [1] was 28 mmol/L, the CHLORIDE [1] was 101 MEQ/L and the CHOLESTEROL [1] was 82.67 mg/dL. The “CREATINE PHOSPHOKINASE” value [1] was 219 u/L, the CREATININE [1] was 0.19 mg/dL and the GLUCOSE [1] was 146.67 mg/dL. The “LACTATE DEHYDROGENASE” value [1] was 121 u/L, the LIPASE [1] was 8.33 u/L and the PHOSPHORUS [1] was 12.2 mg/dL. For the same compound, the POTASSIUM [1] was 5.86 MEQ/L, the SODIUM [1] was 148.13 MEQ/L and the “TOTAL BILIRUBIN” value [1] was 0.23 mg/dL. The “TOTAL PROTEIN” value [1] was 6.37 G/DL, the “URIC ACID” value [1] was 1.07 mg/dL and the “ABSOLUTE BASOPHIL” value [2] was 0 CELLS/uL. The “ABSOLUTE EOSINOPHIL” value [2] was 242.33 CELLS/uL, the “ABSOLUTE LYMPHOCYTE” value [2] was 11370.67 CELLS/uL and the “ABSOLUTE MONOCYTE” value [2] was 0 CELLS/uL. The “ABSOLUTE SEGMENTED NEUTROPHIL” value [2] was 1353.67 CELLS/uL, the BASOPHIL [2] was 0% and the EOSINOPHIL [2] was 1.67%. The “ERYTHROCYTE COUNT” value [2] was 4.88 x10E6/uL, the HEMATOCRIT [2] was 32.03% and the HEMOGLOBIN [2] was 12.37 G/DL. The “LEUKOCYTE COUNT” value [2] was 12.97 x10E3/uL, the LYMPHOCYTE [2] was 87.67% and the “MEAN CORPUSCULAR HEMOGLOBIN” value [2] was 25.37 pg. The “MEAN CORPUSCULAR HEMOGLOBIN CONCENTRATION” value [2] was 38.6 G/DL, the “MEAN CORPUSCULAR VOLUME” value [2] was 65.7 fL and the MONOCYTE [2] was 0%. For the same compound, the NEUTROPHIL [2] was 10.67%, the “NUCLEATED RED BLOOD CELLS” value [2] was 0 /100WBC and the “PLATELET COUNT” value [2] was 1202.33 x10E3/uL. The “ALANINE AMINOTRANSFERASE” value [2] was 42.67 u/L, the ALBUMIN [2] was 4.27 G/DL and the “ALKALINE PHOSPHATASE” value [2] was 298 u/L. For the same compound, the “ASPARTATE AMINOTRANSFERASE” value [2] was 82 u/L, the “BLOOD UREA NITROGEN” value [2] was 18 mg/dL and the “CARBON DIOXIDE” value [2] was 24.33 mmol/L. The CHLORIDE [2] was 110.67 MEQ/L, the CHOLESTEROL [2] was 82.67 mg/dL and the “CREATINE PHOSPHOKINASE” value [2] was 343.67 u/L. The CREATININE [2] was 0.16 mg/dL, the GLUCOSE [2] was 201 mg/dL and the “LACTATE DEHYDROGENASE” value [2] was 99 u/L. The LIPASE [2] was 8.33 u/L, the PHOSPHORUS [2] was 12 mg/dL and the POTASSIUM [2] was 5.55 MEQ/L. The SODIUM [2] was 148.1 MEQ/L, the “TOTAL BILIRUBIN” value [2] was 0.1 mg/dL and the “TOTAL PROTEIN” value [2] was 5.8 G/DL. For the same compound, the “URIC ACID” value [2] was 2.17 mg/dL, the “ABSOLUTE BASOPHIL” value [3] was 0 CELLS/uL and the “ABSOLUTE EOSINOPHIL” value [3] was 0 CELLS/uL. For the same compound, the “ABSOLUTE LYMPHOCYTE” value [3] was 10293 CELLS/uL, the “ABSOLUTE MONOCYTE” value [3] was 39 CELLS/uL and the “ABSOLUTE SEGMENTED NEUTROPHIL” value [3] was 901.33 CELLS/uL. For the same compound, the BASOPHIL [3] was 0%, the EOSINOPHIL [3] was 0% and the “ERYTHROCYTE COUNT” value [3] was 5.44 x10E6/uL. For the same compound, the HEMATOCRIT [3] was 34.1%, the HEMOGLOBIN [3] was 13.07 G/DL and the “LEUKOCYTE COUNT” value [3] was 11.23 x10E3/uL. The LYMPHOCYTE [3] was 91.67%, the “MEAN CORPUSCULAR HEMOGLOBIN” value [3] was 24.03 pg and the “MEAN CORPUSCULAR HEMOGLOBIN CONCENTRATION” value [3] was 38.33 G/DL. The “MEAN CORPUSCULAR VOLUME” value [3] was 62.67 fL, the MONOCYTE [3] was 0.33% and the NEUTROPHIL [3] was 8%. The “NUCLEATED RED BLOOD CELLS” value [3] was 0 /100WBC, the “PLATELET COUNT” value [3] was 1190 x10E3/uL and the “ALANINE AMINOTRANSFERASE” value [3] was 44.33 u/L. For the same compound, the ALBUMIN [3] was 4.33 G/DL, the “ALKALINE PHOSPHATASE” value [3] was 313.67 u/L and the “ASPARTATE AMINOTRANSFERASE” value [3] was 87 u/L. The “BLOOD UREA NITROGEN” value [3] was 21.33 mg/dL, the “CARBON DIOXIDE” value [3] was 24.33 mmol/L and the CHLORIDE [3] was 103 MEQ/L. For the same compound, the CHOLESTEROL [3] was 75.67 mg/dL, the “CREATINE PHOSPHOKINASE” value [3] was 564.67 u/L and the CREATININE [3] was 0.21 mg/dL. The GLUCOSE [3] was 159 mg/dL, the “LACTATE DEHYDROGENASE” value [3] was 210 u/L and the LIPASE [3] was 8.33 u/L. The PHOSPHORUS [3] was 11.87 mg/dL, the POTASSIUM [3] was 6.38 MEQ/L and the SODIUM [3] was 144.57 MEQ/L. The “TOTAL BILIRUBIN” value [3] was 0.13 mg/dL, the “TOTAL PROTEIN” value [3] was 5.97 G/DL and the “URIC ACID” value [3] was 1.67 mg/dL.
